The structures appear in SMILES notation.

These results are taken from patent US20090239841A1, “Diaryl Ureas as CB1 Antagonists” (priority 2004, published 2009).

The test deals with T1, hCB1 (Homo sapiens, UniProt P21554).
T1 construct: made in house; host or cells: Sf9 insect cells (baculovirus), P2 membranes
T1 sequence (P21554 whole entry): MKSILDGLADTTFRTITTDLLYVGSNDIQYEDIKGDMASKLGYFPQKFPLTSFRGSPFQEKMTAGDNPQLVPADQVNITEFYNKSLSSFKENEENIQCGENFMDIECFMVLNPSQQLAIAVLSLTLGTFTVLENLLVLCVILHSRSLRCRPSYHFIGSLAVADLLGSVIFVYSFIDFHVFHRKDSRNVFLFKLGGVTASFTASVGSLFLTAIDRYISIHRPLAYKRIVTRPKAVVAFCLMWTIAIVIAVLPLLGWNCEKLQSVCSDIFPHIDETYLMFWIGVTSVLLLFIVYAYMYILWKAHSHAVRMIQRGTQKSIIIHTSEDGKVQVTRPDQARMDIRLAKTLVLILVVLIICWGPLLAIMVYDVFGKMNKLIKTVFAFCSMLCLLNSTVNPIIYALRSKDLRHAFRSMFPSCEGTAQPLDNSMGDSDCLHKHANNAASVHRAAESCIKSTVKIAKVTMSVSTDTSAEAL
Put plainly: Agonist-induced GTP binding (GTPγ35S) assay at CB1, Example 8. In kind it is biochemical. The following applies: Table II; IC50 at CB1, GTP binding with 1 nM CP55,940; read-out: IC50. From the text: As noted above, compounds provided herein are CB1 antagonists. Certain such compounds are non-competitive CB1 antagonists. In addition, or alternatively, certain compounds provided herein display CB1 specificity. CB1 antagonist activity may be confirmed using an agonist-induced GTP binding assay, such as the assay described in Example 8. Such assays employ a CB1-containing cell membrane preparation (e.g., a preparation of membranes of insect cells that recombinantly express CB1) to determine the effect of a test compound on CB1 agonist-induced GTP binding to CB1. Briefly, a first cell membrane preparation comprising CB1 is contacted with: (i) labeled GTP; (ii) a CB1 agonist; and (iii) a test compound to yield a test membrane preparation. Simultaneously, or in either order, a second cell membrane preparation comprising CB1 is contacted with: (i) labeled GTP; and (ii) a CB1 agonist to yield a control membrane preparation. The labeled GTP is preferably GTPγ^35S; a representative CB1 agonist is CP55,940. Such contact is performed under conditions that are suitable for GTP binding to CB1, such as the conditions described in Example 8. The concentrations of labeled GTP and CB1 agonist used are generally concentrations that are sufficient to result in a detectable increase in the amount of labeled GTP bound to the membrane preparation in the presence of CB1 agonist. Such concentrations may be determined by routine experimentation; representative suitable concentrations are provided in Example 8. Generally, a range of test compound concentrations is used (e.g., ranging from 10^−10M to 10^−5M).
After sufficient contact (e.g., incubation) to allow GTP binding to the membrane preparations, a signal that corresponds to (represents) the amount of bound, labeled GTP is detected (typically, unbound labeled GTP is first removed via a washing step). In other words, simultaneously or in either order: (i) a test signal that represents an amount of bound, labeled GTP in the test membrane preparation is detected; and (ii) a control signal that represents an amount of bound, labeled GTP in the control membrane preparation is detected. The nature of the signal detected is determined by the type of label used. For example, if the GTP is radioactively labeled, the signal detected is radioactive decay (e.g., via liquid scintillation spectrometry). The CB1 antagonist activity of the test compound is then determined by comparing the test signal with the control signal.
This assay can also be used to detect partial agonism mediated by antagonist compounds. A compound being analyzed in this assay is referred to herein as a “test compound.” Agonist-stimulated GTP binding activity is measured as follows: Four independent baculoviral stocks (one directing the expression of hCB1 and three directing the expression of each of the three subunits of a heterotrimeric G-protein) are used to infect a culture of Sf9 cells as described in Example 5.
Agonist-stimulated GTP binding on purified membranes (as described in Example 6) is initially assessed using the cannabinoid agonist CP55,940 to ascertain that the receptor/G-protein-alpha-beta-gamma combination(s) yield a functional response as measured by GTP binding.
P2 membranes are resuspended by Dounce homogenization (tight pestle) in GTP binding assay buffer (50 mM Tris pH 7.4, 120 mM NaCl, 5 mM MgCl2, 2 mM EGTA, 0.1% BSA, 0.1 mM bacitracin, 10 KIU/mL aprotinin, 5 μM GDP) and added to reaction tubes at a concentration of 10 μg protein/reaction tube. After adding increasing doses of the agonist CP55,940 at concentrations ranging from 10^−12 M to 10^−6 M, reactions are initiated by the addition of […] GTPγ^35S. In competition experiments, non-radiolabeled test compounds are added to separate assays at concentrations ranging from 10^−10 M to 10^−5 M along with 1 nM CP55,940 to yield a final volume of 0.25 mL. […]
Usually IC50 stands for the midpoint of a concentration-inhibition curve. For `O=C(Nc1ccc(OC(F)F)cc1)Nc1ccc2c(c1)CCC2` [Compound 80, N-[4-(difluoromethoxy)phenyl]-N′-(2,3-dihydro-1H-inden-5-yl)urea], the IC50 is under 2 µM.
With `O=C(Nc1ccc(OC(F)F)cc1)Nc1ccc(N2CCOCC2)c(Cl)c1` [Compound 81, N-(3-chloro-4-morpholin-4-ylphenyl)-N′-[4-(difluoromethoxy)phenyl]urea] the figure was under 2 µM; with `O=C(Nc1ccc(OC(F)F)cc1)Nc1ccc(-n2cnc(Cl)c2Cl)cc1` [Compound 82, N-[4-(4,5-dichloro-1H-imidazol-1-yl)phenyl]-N′-[4-(difluoromethoxy)phenyl]urea], under 2 µM; with `O=C(Nc1ccc(OC(F)F)cc1)Nc1ccc2c(c1)C(=O)CC2` [Compound 83, N-[4-(difluoromethoxy)phenyl]-N′-(3-oxo-2,3-dihydro-1H-inden-5-yl)urea], under 2 µM.
As to `COc1ccc(NC(=O)Nc2ccc(OC(F)F)cc2)cc1OC1CCCC1` [Compound 84, N-[3-(cyclopentyloxy)-4-methoxyphenyl]-N′-[4-(difluoromethoxy)phenyl]urea], the IC50 was under 2 µM.
Regarding `O=C(Nc1ccc(OC(F)F)cc1)Nc1cccc(Oc2ccccc2)c1` [Compound 85, N-[4-(difluoromethoxy)phenyl]-N′-(3-phenoxyphenyl)urea], the IC50 is under 2 µM.
Turning to `O=C(Nc1ccc(Oc2ccccc2)cc1)Nc1ccc(OC(F)F)cc1` [Compound 86, N-[4-(difluoromethoxy)phenyl]-N′-(4-phenoxyphenyl)urea], the IC50 is under 2 µM.
On to `COc1cc(NC(=O)Nc2ccc(OC(F)F)cc2)cc(C(F)(F)F)c1` [Compound 87, N-[4-(difluoromethoxy)phenyl]-N′-[3-methoxy-5-(trifluoromethyl)phenyl]urea], for which the IC50 was under 2 µM.
Consider `O=C(Nc1ccc(OC(F)F)cc1)Nc1ccc2c(c1)OCCO2` [Compound 88, N-[4-(difluoromethoxy)phenyl]-N′-(2,3-dihydro-1,4-benzodioxin-6-yl)urea], for which the IC50 was under 2 µM.
With `Cc1cc(C)cc(NC(=O)Nc2ccc(OC(F)F)cc2)c1` [Compound 89, N-[4-(difluoromethoxy)phenyl]-N′-(3,5-dimethylphenyl)urea] the figure was under 2 µM; with `Cc1ccc(NC(=O)Nc2ccc(OC(F)F)cc2)cc1C` [Compound 90, N-[4-(difluoromethoxy)phenyl]-N′-(3,4-dimethylphenyl)urea], under 2 µM.
As for `COc1cc(NC(=O)Nc2ccc(OC(F)F)cc2)cc(OC)c1` [Compound 91, N-[4-(difluoromethoxy)phenyl]-N′-(3,5-dimethoxyphenyl)urea], the IC50 was under 2 µM.
With `COc1ccc(NC(=O)Nc2ccc(OC(F)F)cc2)cc1OC` [Compound 92, N-[4-(difluoromethoxy)phenyl]-N′-(3,4-dimethoxyphenyl)urea] the figure was under 2 µM; with `O=C(Nc1ccc(OC(F)F)cc1)Nc1cc(Cl)cc(Cl)c1` [Compound 93, N-(3,5-dichlorophenyl)-N′-[4-(difluoromethoxy)phenyl]urea], under 2 µM.
Consider `O=C(Nc1ccc(OC(F)F)cc1)Nc1ccc(Cl)c(Cl)c1` [Compound 94, N-(3,4-dichlorophenyl)-N′-[4-(difluoromethoxy)phenyl]urea], for which the IC50 is under 2 µM.
With `O=C(Nc1ccc(OC(F)F)cc1)Nc1cccc(OC(F)(F)F)c1` [Compound 95, N-[4-(difluoromethoxy)phenyl]-N′-[3-(trifluoromethoxy)phenyl]urea] the figure was under 2 µM.
`O=C(Nc1ccc(OC(F)F)cc1)Nc1ccc(OC(F)(F)F)cc1` [Compound 96, N-[4-(difluoromethoxy)phenyl]-N′-[4-(trifluoromethoxy)phenyl]urea]: the IC50 was under 2 µM.
With `CC(C)Oc1ccc(NC(=O)Nc2ccc(OC(F)F)cc2)cc1` [Compound 97, N-[4-(difluoromethoxy)phenyl]-N′-(4-isopropoxyphenyl)urea], the IC50 was under 2 µM.
With `O=C(Nc1ccc(OC(F)F)cc1)Nc1cccc(-c2ccccc2)c1` [Compound 98, N-biphenyl-3-yl-N′-[4-(difluoromethoxy)phenyl]urea] the figure was under 2 µM; with `O=C(Nc1ccc(OC(F)F)cc1)Nc1ccc(-c2ccccc2)cc1` [Compound 99, N-biphenyl-4-yl-N′-[4-(difluoromethoxy)phenyl]urea], under 2 µM; with `COc1cc(NC(=O)Nc2ccc(OC(F)(F)F)cc2)ccc1OC(F)F` [Compound 100, N-[4-(difluoromethoxy)-3-methoxyphenyl]-N′-[4-(trifluoromethoxy)phenyl]urea], under 2 µM.
With `O=C(Nc1ccc(OC(F)(F)F)cc1)Nc1cccc(OCCO)c1` [Compound 101, N-[3-(2-hydroxyethoxy)phenyl]-N′-[4-(trifluoromethoxy)phenyl]urea] the figure was under 2 µM; with `O=C(Nc1ccc(COc2ccccc2)cc1)Nc1ccc(OC(F)F)cc1` [Compound 102, N-[4-(dif1uoromethoxy)phenyl]-N′-[4-(phenoxymethyl)phenyl]urea], under 2 µM; with `O=C(Nc1ccc(OC(F)F)cc1)Nc1cccc(OC(F)F)c1` [Compound 103, N-[3-(difluoromethoxy)phenyl]-N′-[4-(difluoromethoxy)phenyl]urea], under 2 µM.
As to `O=C(Nc1ccc(OC(F)F)cc1)Nc1ccc(N2CCCC2)cc1` [Compound 104, N-[4-(difluoromethoxy)phenyl]-N′-(4-pyrrolidin-1-ylphenyl)urea], the IC50 was under 2 µM.
Consider `O=C(Nc1ccc(OC(F)F)cc1)Nc1ccc(N2CCCCC2)cc1` [Compound 105, N-[4-(difluoromethoxy)phenyl]-N′-(4-piperidin-1-ylphenyl)urea], for which the IC50 was under 2 µM.
For `O=C(Nc1ccc(OC(F)F)cc1)Nc1cc(C2CC2)n[nH]1` [Compound 106, N-(3-cyclopropyl-1H-pyrazol-5-yl)-N′-[4-(difluoromethoxy)phenyl]urea] the value was under 2 µM.
For `O=C(Nc1ccc(OC(F)F)cc1)Nc1cc(-c2ccccc2)n[nH]1` [Compound 107, N-[4-(difluoromethoxy)phenyl]-N′-(3-phenyl-1H-pyrazol-5-yl)urea], the IC50 is under 2 µM.
Consider `O=C(Nc1ccc(OC(F)F)cc1)Nc1cccc(Oc2ncccn2)c1` [Compound 108, N-[4-(difluoromethoxy)phenyl]-N′-[3-(pyrimidin-2-yloxy)phenyl]urea], for which the IC50 is under 2 µM.
Take `CS(=O)(=O)N1CCc2cc(NC(=O)Nc3ccc(OC(F)F)cc3)ccc21` [Compound 109, N-[4-(difluoromethoxy)phenyl]-N′-[1-(methylsu1fonyl)-2,3-dihydro-1H-indol-5-yl]urea]: the IC50 is under 2 µM.
For `O=C(Nc1ccc(OC(F)F)cc1)Nc1ccc(S(=O)(=O)N2CCCCC2)cc1` [Compound 110, N-[4-(difluoromethoxy)phenyl]-N′-[4-(piperidin-1-ylsulfonyl)phenyl]urea] the value was under 2 µM; for `O=C(Nc1ccc(OC(F)F)cc1)Nc1ccc(S(=O)(=O)N2CCCC2)cc1` [Compound 111, N-[4-(difluoromethoxy)phenyl]-N′-[4-(pyrrolidin-1-ylsulfonyl)phenyl]urea], under 2 µM; for `O=C(Nc1cccc(OC(F)F)c1)Nc1cccc(OC(F)F)c1` [Compound 112, N,N′-bis[3-(difluoromethoxy)phenyl]urea], under 2 µM.
With `COc1ccc(NC(=O)Nc2ccc(OC(F)F)cc2)cn1` [Compound 113, N-[4-(difluoromethoxy)phenyl]-N′-(6-methoxypyridin-3-yl)urea] the figure was under 2 µM.
